Measurements published in patent publication US20240150325A1, “NOVEL COMPOUND AS PROTEIN KINASE INHIBITORS” (LG CHEM, LTD., priority 2021, published 2024).

Experiments:
MET = MET (Homo sapiens, UniProt P08581); assay: Evaluation of inhibitory activity to MET; format: biochemical
Excerpt: (§1) Experimental Example 1. Evaluation of Inhibitory Activity to RON and MET

RON = RON (Homo sapiens, UniProt Q04912); assay: Evaluation of inhibitory activity to RON; format: biochemical
Excerpt: as §1

Chain of RON (Q04912 25-1400): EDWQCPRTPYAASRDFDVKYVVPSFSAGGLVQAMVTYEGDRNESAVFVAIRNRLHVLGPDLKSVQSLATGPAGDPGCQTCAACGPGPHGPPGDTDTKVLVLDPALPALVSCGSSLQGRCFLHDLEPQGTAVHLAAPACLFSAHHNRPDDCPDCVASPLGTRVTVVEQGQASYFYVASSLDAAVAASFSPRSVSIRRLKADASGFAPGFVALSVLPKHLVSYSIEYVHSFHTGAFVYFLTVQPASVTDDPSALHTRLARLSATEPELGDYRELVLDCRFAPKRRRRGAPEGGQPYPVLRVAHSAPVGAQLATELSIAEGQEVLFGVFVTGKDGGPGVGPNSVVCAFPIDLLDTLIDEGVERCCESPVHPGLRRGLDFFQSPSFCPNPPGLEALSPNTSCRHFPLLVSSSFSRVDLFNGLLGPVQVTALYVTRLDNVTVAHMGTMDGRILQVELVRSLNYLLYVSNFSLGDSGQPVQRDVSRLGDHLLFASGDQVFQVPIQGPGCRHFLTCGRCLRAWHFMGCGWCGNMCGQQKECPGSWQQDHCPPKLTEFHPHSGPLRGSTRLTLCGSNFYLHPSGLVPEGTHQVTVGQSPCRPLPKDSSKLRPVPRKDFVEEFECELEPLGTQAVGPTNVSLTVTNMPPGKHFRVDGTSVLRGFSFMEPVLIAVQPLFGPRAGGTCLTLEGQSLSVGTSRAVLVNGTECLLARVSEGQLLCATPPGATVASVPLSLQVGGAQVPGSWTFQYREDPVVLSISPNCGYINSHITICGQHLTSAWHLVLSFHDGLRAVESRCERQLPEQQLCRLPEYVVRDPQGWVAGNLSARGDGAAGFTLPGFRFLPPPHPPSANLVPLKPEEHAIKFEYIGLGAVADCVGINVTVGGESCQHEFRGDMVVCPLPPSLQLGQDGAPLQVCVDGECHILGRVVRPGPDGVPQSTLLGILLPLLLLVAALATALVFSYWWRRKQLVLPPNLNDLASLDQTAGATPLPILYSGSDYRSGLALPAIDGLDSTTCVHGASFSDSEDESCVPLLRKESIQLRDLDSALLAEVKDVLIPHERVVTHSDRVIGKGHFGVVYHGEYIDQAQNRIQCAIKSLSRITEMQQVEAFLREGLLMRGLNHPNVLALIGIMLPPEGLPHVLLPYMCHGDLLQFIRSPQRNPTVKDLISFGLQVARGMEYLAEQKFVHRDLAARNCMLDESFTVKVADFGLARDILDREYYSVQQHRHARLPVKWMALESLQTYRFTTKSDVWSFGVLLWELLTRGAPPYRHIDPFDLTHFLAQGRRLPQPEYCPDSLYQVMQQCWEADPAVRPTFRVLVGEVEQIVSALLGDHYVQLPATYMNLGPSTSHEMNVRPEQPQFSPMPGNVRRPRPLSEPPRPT
Chain of MET (P08581 25-1390): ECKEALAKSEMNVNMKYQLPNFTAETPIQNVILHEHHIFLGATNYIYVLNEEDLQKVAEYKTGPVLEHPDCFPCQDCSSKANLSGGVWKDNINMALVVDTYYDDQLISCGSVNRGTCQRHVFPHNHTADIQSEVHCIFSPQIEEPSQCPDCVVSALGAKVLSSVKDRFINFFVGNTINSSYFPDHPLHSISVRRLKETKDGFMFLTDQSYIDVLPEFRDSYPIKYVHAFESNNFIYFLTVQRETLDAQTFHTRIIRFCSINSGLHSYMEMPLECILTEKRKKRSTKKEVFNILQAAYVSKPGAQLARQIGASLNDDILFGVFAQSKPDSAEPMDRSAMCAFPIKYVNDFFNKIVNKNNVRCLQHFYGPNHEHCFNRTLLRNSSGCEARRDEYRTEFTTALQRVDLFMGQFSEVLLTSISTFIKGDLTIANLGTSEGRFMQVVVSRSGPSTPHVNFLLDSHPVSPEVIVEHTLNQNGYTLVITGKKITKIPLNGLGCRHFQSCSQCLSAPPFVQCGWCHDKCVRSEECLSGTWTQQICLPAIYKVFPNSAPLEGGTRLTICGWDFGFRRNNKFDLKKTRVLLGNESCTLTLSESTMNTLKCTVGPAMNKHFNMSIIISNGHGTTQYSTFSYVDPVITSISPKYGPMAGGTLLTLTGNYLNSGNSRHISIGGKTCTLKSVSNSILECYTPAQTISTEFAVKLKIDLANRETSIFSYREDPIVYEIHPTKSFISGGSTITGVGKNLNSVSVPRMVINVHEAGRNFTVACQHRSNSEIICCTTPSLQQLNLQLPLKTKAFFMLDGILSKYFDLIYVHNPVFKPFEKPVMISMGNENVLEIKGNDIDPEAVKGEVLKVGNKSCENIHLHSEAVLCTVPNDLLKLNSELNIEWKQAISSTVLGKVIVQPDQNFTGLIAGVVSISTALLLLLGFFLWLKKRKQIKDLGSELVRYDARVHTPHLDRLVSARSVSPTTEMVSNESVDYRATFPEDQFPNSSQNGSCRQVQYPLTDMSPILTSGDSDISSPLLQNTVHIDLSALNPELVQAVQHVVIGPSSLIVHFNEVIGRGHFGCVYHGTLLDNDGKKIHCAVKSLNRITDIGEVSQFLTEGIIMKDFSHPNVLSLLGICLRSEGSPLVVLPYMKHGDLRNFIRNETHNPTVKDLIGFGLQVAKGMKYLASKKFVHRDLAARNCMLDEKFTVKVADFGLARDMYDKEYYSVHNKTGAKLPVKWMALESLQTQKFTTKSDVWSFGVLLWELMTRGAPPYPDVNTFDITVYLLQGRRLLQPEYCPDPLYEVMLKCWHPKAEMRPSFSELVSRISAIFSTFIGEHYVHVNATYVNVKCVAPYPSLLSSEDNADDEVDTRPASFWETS

IC50 (MET)	IC50 (RON)	Compound
67 nM	351 nM	CCOc1ccn(-c2ccc(F)cc2)c(=O)c1C(=O)Nc1ccc(Oc2ccc(O)c(-c3ccncn3)c2)c(F)c1 [Example 54, 4-Ethoxy-N-(3-fluoro-4-(4-hydroxy-3-(pyrimidin-4-yl)phenoxy)phenyl)-1-(4-fluorophenyl)-2-oxo-1,2-dihydropyridin-3-carboxamide]
1710 nM	855 nM	Nc1nccc(-c2cc(-c3ccc(NC(=O)c4ccc(CO)n(-c5ccc(F)cc5)c4=O)cc3F)ccc2O)n1 [Example 10, N-(3′-(2-aminopyrimidin-4-yl)-2-fluoro-4′-hydroxy-[1,1′-biphenyl]-4-yl)-1-(4-fluorophenyl)-6-(hydroxymethyl)-2-oxo-1,2-dihydropyridin-3-carboxamide]
552 nM	2280 nM	CCOc1ccn(-c2ccc(F)cc2)c(=O)c1C(=O)Nc1ccc(Nc2ccc(O)c(-c3ccnc(N)n3)c2)cc1F [Example 34, N-(4-((3-(2-aminopyrimidin-4-yl)-4-hydroxyphenyl)amino)-2-fluorophenyl)-4-ethoxy-1-(4-fluorophenyl)-2-oxo-1,2-dihydropyridin-3-carboxamide]
2940 nM	1330 nM	CCOc1ccn(-c2ccc(F)cc2)c(=O)c1C(=O)Nc1ccc(-c2ccc(O)c(-c3ccnc(N)n3)c2)c(C)c1 [Example 13, N-(3′-(2-aminopyrimidin-4-yl)-4′-hydroxy-2-methyl-[1,1′-biphenyl]-4-yl)-4-ethoxy-1-(4-fluorophenyl)-2-oxo-1,2-dihydropyridin-3-carboxamide]
> 10000 nM	2300 nM	CCOc1ccn(-c2ccc(F)cc2)c(=O)c1C(=O)Nc1ccc(-c2ccc(OC)c(-c3cnc(N)nc3)c2)c(F)c1 [Example 17, N-(3′-(2-aminopyrimidin-5-yl)-2-fluoro-4′-methoxy-[1,1′-biphenyl]-4-yl)-4-ethoxy-1-(4-fluorophenyl)-2-oxo-1,2-dihydropyridin-3-carboxamide]
354 nM	–	C/C(=N\O)c1cc(Oc2ccc(NC(=O)c3ccc(C)n(-c4ccc(F)cc4)c3=O)cc2F)ccc1O [Example 38, (E)-N-(3-fluoro-4-(4-hydroxy-3-(1-(hydroxyimino)ethyl)phenoxy)phenyl)-1-(4-fluorophenyl)-6-methyl-2-oxo-1,2-dihydropyridin-3-carboxamide]
2230 nM	942 nM	Cn1cc(-c2cc(C(=O)Nc3ccc(-c4ccc(O)c(-c5ccnc(N)n5)c4)c(F)c3)c(=O)n(-c3ccc(F)cc3)c2)cn1 [Example 7, N-(3′-(2-aminopyrimidin-4-yl)-2-fluoro-4′-hydroxy-[1,1′-biphenyl]-4-yl)-1-(4-fluorophenyl)-5-(1-methyl-1H-pyrazol-4-yl)-2-oxo-1,2-dihydropyridin-3-carboxamide]
12 nM	133 nM	Nc1nccc(-c2cc(Oc3ccc(NC(=O)c4ccc(CO)n(-c5ccc(F)cc5)c4=O)cc3F)ccc2O)n1 [Example 50, N-(4-(3-(2-aminopyrimidin-4-yl)-4-hydroxyphenoxy)-3-fluorophenyl)-1-(4-fluorophenyl)-6-(hydroxymethyl)-2-oxo-1,2-dihydropyridin-3-carboxamide]
53 nM	355 nM	COc1ccn(-c2ccc(F)cc2)c(=O)c1C(=O)Nc1ccc(Oc2ccc(O)c(-c3ccnc(N)n3)c2)c(F)c1 [Example 42, N-(4-(3-(2-aminopyrimidin-4-yl)-4-hydroxyphenoxy)-3-fluorophenyl)-1-(4-fluorophenyl)-4-methoxy-2-oxo-1,2-dihydropyridin-3-carboxamide]

The next lines start with the compound.

Compound	IC50 (MET)	IC50 (RON)
CCOc1ccn(-c2ccc(F)cc2)c(=O)c1C(=O)Nc1ccc(-c2ccc(O)c(-c3ccnc(N)n3)c2)c(F)c1 [Example 1, N-(3′-(2-aminopyrimidin-4-yl)-2-fluoro-4′-hydroxy-[1,1′-biphenyl]-4-yl)-4-ethoxy-1-(4-fluorophenyl)-2-oxo-1,2-dihydropyridin-3-carboxamide]	612 nM	144 nM
Cc1c(C(=O)Nc2ccc(Oc3ccc(O)c(-c4ccnc(N)n4)c3)c(F)c2)c(=O)n(-c2ccccc2)n1C [Example 43, N-(4-(3-(2-aminopyrimidin-4-yl)-4-hydroxyphenoxy)-3-fluorophenyl)-1,5-dimethyl-3-oxo-2-phenyl-2,3-dihydro-1H-pyrazol-4-carboxamide]	48 nM	279 nM
CC(=O)c1cc(Oc2ccc(NC(=O)c3ccc(C)n(-c4ccc(F)cc4)c3=O)cc2F)ccc1O [Example 37, N-(4-(3-acetyl-4-hydroxyphenoxy)-3-fluorophenyl)-1-(4-fluorophenyl)-6-methyl-2-oxo-1,2-dihydropyridin-3-carboxamide]	954 nM	–
Cc1ccc(C(=O)Nc2ccc(Oc3ccc(O)c(-c4ccnc(N)n4)c3)c(F)c2)c(=O)n1-c1ccc(F)cc1 [Example 40, N-(4-(3-(2-aminopyrimidin-4-yl)-4-hydroxyphenoxy)-3-fluorophenyl)-1-(4-fluorophenyl)-6-methyl-2-oxo-1,2-dihydropyridin-3-carboxamide]	4 nM	–
CCOc1ccn(-c2ccc(F)cc2)c(=O)c1C(=O)Nc1ccc(Oc2ccc(O)c(-c3ccnc(N)n3)c2)c(F)c1 [Example 39, N-(4-(3-(2-aminopyrimidin-4-yl)-4-hydroxyphenoxy)-3-fluorophenyl)-4-ethoxy-1-(4-fluorophenyl)-2-oxo-1,2-dihydropyridin-3-carboxamide]	27 nM	86 nM
Cn1cc(-c2cc(C(=O)Nc3ccc(Oc4ccc(O)c(-c5ccnc(N)n5)c4)c(F)c3)c(=O)n(-c3ccc(F)cc3)c2)cn1 [Example 47, N-(4-(3-(2-aminopyrimidin-4-yl)-4-hydroxyphenoxy)-3-fluorophenyl)-1-(4-fluorophenyl)-5-(1-methyl-1H-pyrazol-4-yl)-2-oxo-1,2-dihydropyridin-3-carboxamide]	179 nM	882 nM
Nc1nccc(-c2cc(Oc3ccc(NC(=O)c4cc(Br)cn(-c5ccc(F)cc5)c4=O)cc3F)ccc2O)n1 [Example 44, N-(4-(3-(2-aminopyrimidin-4-yl)-4-hydroxyphenoxy)-3-fluorophenyl)-5-bromo-1-(4-fluorophenyl)-2-oxo-1,2-dihydropyridin-3-carboxamide]	46 nM	137 nM
CCOc1ccn(-c2ccc(F)cc2)c(=O)c1C(=O)Nc1ccc(Oc2ccc(O)c(-c3cc[nH]n3)c2)c(F)c1 [Example 57, 4-Ethoxy-N-(3-fluoro-4-(4-hydroxy-3-(1H-pyrazol-3-yl)phenoxy)phenyl)-1-(4-fluorophenyl)-2-oxo-1,2-dihydropyridin-3-carboxamide]	160 nM	4480 nM
Cc1ccc(C(=O)Nc2ccc(Oc3ccc(O)c(-c4cc[nH]n4)c3)c(F)c2)c(=O)n1-c1ccc(F)cc1 [Example 58, N-(3-Fluoro-4-(4-hydroxy-3-(1H-pyrazol-3-yl)phenoxy)phenyl)-1-(4-fluorophenyl)-6-methyl-2-oxo-1,2-dihydropyridin-3-carboxamide]	99 nM	1450 nM
COc1ccn(-c2ccc(F)cc2)c(=O)c1C(=O)Nc1ccc(-c2ccc(O)c(-c3ccnc(N)n3)c2)c(F)c1 [Example 2, N-(3′-(2-aminopyrimidin-4-yl)-2-fluoro-4′-hydroxy-[1,1′-biphenyl]-4-yl)-1-(4-fluorophenyl)-4-methoxy-2-oxo-1,2-dihydropyridin-3-carboxamide]	583 nM	131 nM
Nc1nccc(-c2cc(Oc3ccc(NC(=O)c4cccn(-c5ccc(F)cc5)c4=O)cc3F)ccc2O)n1 [Example 46, N-(4-(3-(2-aminopyrimidin-4-yl)-4-hydroxyphenoxy)-3-fluorophenyl)-1-(4-fluorophenyl)-2-oxo-1,2-dihydropyridin-3-carboxamide]	54 nM	241 nM
CCOc1ccn(-c2ccc(F)cc2)c(=O)c1C(=O)Nc1ccc(Nc2ccc(O)c(-c3ccnc(N)n3)c2)c(F)c1 [Example 28, N-(4-((3-(2-aminopyrimidin-4-yl)-4-hydroxyphenyl)amino)-3-fluorophenyl)-4-ethoxy-1-(4-fluorophenyl)-2-oxo-1,2-dihydropyridin-3-carboxamide]	180 nM	1170 nM
Cc1ccc(C(=O)Nc2ccc(Nc3ccc(O)c(-c4ccnc(N)n4)c3)c(F)c2)c(=O)n1-c1ccc(F)cc1 [Example 30, N-(4-((3-(2-aminopyrimidin-4-yl)-4-hydroxyphenyl)amino)-3-fluorophenyl)-1-(4-fluorophenyl)-6-methyl-2-oxo-1,2-dihydropyridin-3-carboxamide]	49 nM	248 nM
O=C(Nc1ccc(F)cc1)C1(C(=O)Nc2ccc(Oc3ccc(O)c(-c4ccncn4)c3)c(F)c2)CC1 [Example 56, N-(3-fluoro-4-(4-hydroxy-3-(pyrimidin-4-yl)phenoxy)phenyl)-N-(4-fluorophenyl)cyclopropan-1,1-dicarboxamide]	281 nM	3350 nM
Nc1nccc(-c2cc(-c3ccc(NC(=O)c4cc(C5CC5)cn(-c5ccc(F)cc5)c4=O)cc3F)ccc2O)n1 [Example 8]	2090 nM	834 nM
Nc1nccc(-c2cc(Oc3ccc(NC(=O)c4ccc(C(F)(F)F)n(-c5ccc(F)cc5)c4=O)cc3F)ccc2O)n1 [Example 49, N-(4-(3-(2-aminopyrimidin-4-yl)-4-hydroxyphenoxy)-3-fluorophenyl)-1-(4-fluorophenyl)-2-oxo-6-(trifluoromethyl)-1,2-dihydropyridin-3-carboxamide]	67 nM	163 nM
Nc1nccc(-c2cc(Oc3ccc(NC(=O)C4(C(=O)Nc5ccc(F)cc5)CC4)cc3F)ccc2O)n1 [Example 41, N-(4-(3-(2-aminopyrimidin-4-yl)-4-hydroxyphenoxy)-3-fluorophenyl)-N-(4-fluorophenyl)cyclopropan-1,1-dicarboxamide]	71 nM	362 nM
Nc1nccc(-c2cc(Oc3ccc(NC(=O)c4cc(C5CC5)cn(-c5ccc(F)cc5)c4=O)cc3F)ccc2O)n1 [Example 48, N-(4-(3-(2-aminopyrimidin-4-yl)-4-hydroxyphenoxy)-3-fluorophenyl)-5-cyclopropyl-1-(4-fluorophenyl)-2-oxo-1,2-dihydropyridin-3-carboxamide]	64 nM	23 nM
